The results in this text go back to US10493077B2, “Fused imidazo-piperidine JAK inhibitor compound” (THERAVANCE BIOPHARMA R&D IP, LLC, priority 2017, dated 2019).

The target in one experiment is T1, SRC (Homo sapiens, UniProt P12931).
T1 construct: made in house; host or cells: T7 phage in E. coli (BL21-derived) or HEK-293
The experiment can be described thus: Kinome screen, SRC. The class given is binding. The settings on record: screened at 1 μM. The procedure:
Kinase-tagged T7 phage strains were grown in parallel in 24-well blocks in an E. coli host derived from the BL21 strain. E. coli were grown to log-phase and infected with T7 phage from a frozen stock (multiplicity of infection=0.4) and incubated with shaking at 32° C. until lysis (90-150 minutes). The lysates were centrifuged (6,000×g) and filtered (0.2 μm) to remove cell debris. The remaining kinases were produced in HEK-293 cells and subsequently tagged with DNA for qPCR detection.
Streptavidin-coated magnetic beads were treated with biotinylated small molecule ligands for 30 minutes at room temperature to generate affinity resins for kinase assays. The liganded beads were blocked with excess biotin and washed with blocking buffer (SeaBlock (Pierce), 1% BSA, 0.05% Tween 20, 1 mM DTT) to remove unbound ligand and to reduce non-specific phage binding. […] Test compounds were prepared as 40× stocks in 100% DMSO and directly diluted into the assay. All reactions were performed in polypropylene 384-well plates in a final volume of 0.04 ml. […] The beads were then re-suspended in elution buffer (1×PBS, 0.05% Tween 20, 0.5 μM non-biotinylated affinity ligand) and incubated at room temperature with shaking for 30 minutes. The kinase concentration in the eluates was measured by qPCR.

The subject of experiment [1] is IL-6 stimulated CCL2 (MCP-1) in human PBMCs. Nature of the experiment: Cellular JAK potency assay: inhibition of IL-6 stimulated CCL2 (MCP-1) in human PBMCs. The class given is cell-based. The settings on record: PBMC, 48 h stimulation, read-out: pIC50, inhibition of IL-6 stimulated CCL2 (MCP-1) (converted). On the procedure: The potency of the test compound for inhibition of interleukin-6 (IL-6) stimulated CCL2 (MCP-1) production was measured in human peripheral blood mononuclear cells (PBMCs) isolated from human whole blood (Stanford Blood Center). Because IL-6 signals through JAK, this assay provides a distal measure of JAK cellular potency.
(1) The protocol of Assay 3 paragraph (1) was followed up to the incubation with test compounds. In the present assay, after test compounds were added to wells and incubated, IL-6 (R&D Systems; final concentration 10 ng/ml) in pre-warmed assay media (50 μL) was added.
(2) After cytokine stimulation for 48 h, cells were centrifuged at 500 g for 5 min and supernatants were removed and frozen at −80° C. To determine the inhibitory potency of the test compound in response to IL-6, supernatant CCL2 (MCP-1) concentrations were measured via ELISA (R&D Systems). IC50 values were determined from analysis of the inhibition curves of concentration of CCL2/MCP-1 vs compound concentration. Data are expressed as pIC50 (negative decadic logarithm IC50) values.

Experiment [2] relates to IL-13 induced STAT6 phosphorylation in BEAS-2B human lung epithelial cells. The experiment can be described thus: Cellular JAK potency assay: inhibition of IL-13 (AlphaScreen, BEAS-2B). The class given is cell-based. The procedure:
The AlphaScreen JAK1 cellular potency assay was carried out by measuring interleukin-13 (IL-13, R&D Systems) induced STAT6 phosphorylation in BEAS-2B human lung epithelial cells (ATCC). The anti-STAT6 antibody (Cell Signaling Technologies) was conjugated to AlphaScreen acceptor beads (Perkin Elmer), while the anti-pSTAT6 (pTyr641) antibody (Cell Signaling Technologies) was biotinylated using EZ-Link Sulfo-NHS-Biotin (Thermo Scientific).
BEAS-2B cells were grown at 37° C. in a 5% CO2 humidified incubator in 50% DMEM/50% F-12 medium (Life Technologies) supplemented with 10% FBS (Hyclone), 100 U/mL penicillin, 100 μg/mL streptomycin (Life Technologies), and 2 mM GlutaMAX (Life Technologies). On day 1 of the assay, cells were seeded at a 7,500 cells/well density in white poly-D-lysine-coated 384-well plates (Corning) with 25 μL medium, and were allowed to adhere overnight in the incubator. […] After a minimum of 2 h incubation, the assay plates were read on the EnVision plate reader. AlphaScreen luminescence signals were recorded and utilized to calculate the percent inhibition values based on DMSO and background controls.
For dose-response analysis, percent inhibition data were plotted vs. compound concentrations, and IC50 values were determined from a 4-parameter robust fit model with the Prism software. Results may also be expressed as the negative logarithm of the IC50 value, pIC50.
(In Alpha technology, singlet oxygen from a donor bead excites a nearby acceptor bead.)

Where two headings read alike, the source gives them in different places.

T1 sequence (P12931 whole entry): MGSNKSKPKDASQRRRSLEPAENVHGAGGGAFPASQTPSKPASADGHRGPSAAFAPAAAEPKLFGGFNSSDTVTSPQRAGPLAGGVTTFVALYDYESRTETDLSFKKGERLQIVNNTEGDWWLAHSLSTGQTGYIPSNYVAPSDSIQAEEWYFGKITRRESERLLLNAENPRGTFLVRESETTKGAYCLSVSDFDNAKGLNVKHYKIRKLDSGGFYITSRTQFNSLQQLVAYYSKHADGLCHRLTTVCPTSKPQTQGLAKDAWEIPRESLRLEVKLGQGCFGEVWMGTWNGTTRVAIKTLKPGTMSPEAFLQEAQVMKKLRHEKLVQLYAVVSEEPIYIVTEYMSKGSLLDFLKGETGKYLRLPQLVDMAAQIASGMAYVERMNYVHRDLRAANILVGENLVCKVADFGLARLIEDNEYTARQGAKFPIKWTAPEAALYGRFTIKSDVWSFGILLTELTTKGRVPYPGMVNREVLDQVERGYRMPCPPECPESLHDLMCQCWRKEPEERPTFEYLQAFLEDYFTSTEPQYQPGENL

For orientation: inhibition means how much of the control response was suppressed. Low readings indicate a response near the control, high ones a response far below the control. `CCc1cc(O)c(F)cc1-c1cc(F)c2c(-c3nc4c([nH]3)CCN(C(=O)CN3CCOCC3)C4)n[nH]c2c1` [Compound 1, 1-(2-(6-(2-ethyl-5-fluoro-4-hydroxyphenyl)-4-fluoro-1H-indazol-3-yl)-1,4,6,7-tetrahydro-5H-imidazo[4,5-c]pyridin-5-yl)-2-morpholinoethan-1-one]: the inhibition at 1 µM on SRC is 93%. Also, the IC50 was about 398 nM in experiment [1]; 13 nM in experiment [2] (Assay 2, BEAS-2B cells, read-out: IC50 for inhibition of IL-13); 12.6 nM in experiment [2] (BEAS-2B cells, read-out: pIC50, inhibition of IL-13 induced STAT6 phosphorylation (converted)).
